Laboratory results taken from the NIST ThermoML archive (doi:10.1021/je900306v).

Details: Liquid, Closed cell (Static) method

FCC(F)(F)F [1,1,1,2-tetrafluoroethane]
Details | vapor or sublimation pressure [kPa]
243.1 K | 84.23
248.08 K | 106.12
263.01 K | 199.39
283.03 K | 412.95
303.12 K | 769.5
328.05 K | 1488
352.93 K | 2620.8

C=C(F)C(F)(F)F [2,3,3,3-tetrafluoro-1-propene]
Details | vapor or sublimation pressure [kPa]
224.12 K | 38.9
228.21 K | 48.3
233.12 K | 62
234.21 K | 65.5
238.08 K | 78.7
243.03 K | 98.8
247.95 K | 121.7
252.91 K | 149.2
255.49 K | 165.3
257.7 K | 180.4
258.61 K | 186.9
263.14 K | 221.7
268.1 K | 265.1
272.98 K | 313.9
277.96 K | 370.5
283.09 K | 437.1
288.08 K | 509.4
292.87 K | 587.3
297.97 K | 679.4
303.12 K | 783.2
308.11 K | 894.6
313.09 K | 1018
315.59 K | 1083.5
318.08 K | 1153
320.61 K | 1224
323.11 K | 1301.1
325.58 K | 1380
333.06 K | 1638.3
338.05 K | 1831
343.02 K | 2039
348.01 K | 2265.6
352.98 K | 2511.5
357.97 K | 2778.2
362.94 K | 3067.1
365.93 K | 3218.4
